Laboratory results published in the kinase profiling compilation of Christmann-Franck et al. (2016).

Experiments:
Assay in all cases: radiometric filter-binding kinase assay
EPHB4 (human) = EPHB4 (human) (UniProt P54760)
MAP3K7 TAB1 (human) = MAP3K7 TAB1 (human) (UniProt Q15750+O43318)
[1] = test system: SGK1 (human), O00141 [S422D]
DYRK3 (human) = DYRK3 (human) (UniProt O43781)
MAPKAPK5 (human) = MAPKAPK5 (human) (UniProt Q8IW41)
ROCK2 (rat) = conditions: accession and sequence are those of the human protein
PIM1 (human) = PIM1 (human) (UniProt P11309)
TAOK1 (human) = TAOK1 (human) (UniProt Q7L7X3)
MELK (human) = MELK (human) (UniProt Q14680)
MAPKAPK2 (human) = MAPKAPK2 (human) (UniProt P49137)
NEK2 (human) = NEK2 (human) (UniProt P51955)
NEK2 (human), sequence (P51955 whole entry, looked up): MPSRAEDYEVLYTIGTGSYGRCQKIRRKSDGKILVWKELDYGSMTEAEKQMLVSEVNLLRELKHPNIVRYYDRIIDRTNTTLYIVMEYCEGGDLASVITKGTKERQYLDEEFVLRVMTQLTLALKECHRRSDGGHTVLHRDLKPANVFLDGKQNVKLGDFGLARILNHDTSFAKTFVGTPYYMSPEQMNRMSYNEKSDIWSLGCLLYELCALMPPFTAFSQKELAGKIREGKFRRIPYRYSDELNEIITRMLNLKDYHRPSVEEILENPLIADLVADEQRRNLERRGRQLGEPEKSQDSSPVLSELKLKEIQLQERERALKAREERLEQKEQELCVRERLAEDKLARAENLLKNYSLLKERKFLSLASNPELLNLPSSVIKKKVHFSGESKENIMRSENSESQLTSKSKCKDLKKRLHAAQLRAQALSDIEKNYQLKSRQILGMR

DAPK1 (human) = DAPK1 (human) (UniProt P53355)
MAPK14 (human) = MAPK14 (human) (UniProt Q16539)
EPHA2 (human) = EPHA2 (human) (UniProt P29317)
TTK (human) = TTK (human) (UniProt P33981)
TTK (human), sequence (P33981 whole entry, looked up): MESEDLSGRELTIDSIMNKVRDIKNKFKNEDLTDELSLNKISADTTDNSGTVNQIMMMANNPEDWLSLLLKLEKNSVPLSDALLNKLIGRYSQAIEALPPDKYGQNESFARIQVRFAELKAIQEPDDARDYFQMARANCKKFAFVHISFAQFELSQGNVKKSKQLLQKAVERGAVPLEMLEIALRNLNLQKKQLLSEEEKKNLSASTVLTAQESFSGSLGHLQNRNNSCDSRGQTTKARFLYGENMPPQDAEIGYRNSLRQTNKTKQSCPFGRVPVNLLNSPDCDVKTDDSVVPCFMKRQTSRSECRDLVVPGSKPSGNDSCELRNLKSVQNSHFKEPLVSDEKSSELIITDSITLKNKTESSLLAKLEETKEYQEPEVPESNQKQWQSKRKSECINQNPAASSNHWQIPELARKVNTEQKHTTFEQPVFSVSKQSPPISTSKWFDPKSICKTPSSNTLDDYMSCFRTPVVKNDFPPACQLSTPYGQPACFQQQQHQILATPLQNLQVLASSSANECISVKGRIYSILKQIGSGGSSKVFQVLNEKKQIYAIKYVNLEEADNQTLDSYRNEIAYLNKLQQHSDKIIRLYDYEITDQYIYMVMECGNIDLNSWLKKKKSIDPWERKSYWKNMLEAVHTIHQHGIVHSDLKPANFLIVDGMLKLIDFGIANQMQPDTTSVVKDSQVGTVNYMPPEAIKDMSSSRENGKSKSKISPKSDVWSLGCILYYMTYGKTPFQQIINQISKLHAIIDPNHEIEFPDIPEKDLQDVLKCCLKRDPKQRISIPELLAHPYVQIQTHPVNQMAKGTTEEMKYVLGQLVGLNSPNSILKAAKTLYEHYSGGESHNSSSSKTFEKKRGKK

EPHB1 (human) = EPHB1 (human) (UniProt P54762)
EPHB1 (human), sequence (P54762 whole entry, looked up): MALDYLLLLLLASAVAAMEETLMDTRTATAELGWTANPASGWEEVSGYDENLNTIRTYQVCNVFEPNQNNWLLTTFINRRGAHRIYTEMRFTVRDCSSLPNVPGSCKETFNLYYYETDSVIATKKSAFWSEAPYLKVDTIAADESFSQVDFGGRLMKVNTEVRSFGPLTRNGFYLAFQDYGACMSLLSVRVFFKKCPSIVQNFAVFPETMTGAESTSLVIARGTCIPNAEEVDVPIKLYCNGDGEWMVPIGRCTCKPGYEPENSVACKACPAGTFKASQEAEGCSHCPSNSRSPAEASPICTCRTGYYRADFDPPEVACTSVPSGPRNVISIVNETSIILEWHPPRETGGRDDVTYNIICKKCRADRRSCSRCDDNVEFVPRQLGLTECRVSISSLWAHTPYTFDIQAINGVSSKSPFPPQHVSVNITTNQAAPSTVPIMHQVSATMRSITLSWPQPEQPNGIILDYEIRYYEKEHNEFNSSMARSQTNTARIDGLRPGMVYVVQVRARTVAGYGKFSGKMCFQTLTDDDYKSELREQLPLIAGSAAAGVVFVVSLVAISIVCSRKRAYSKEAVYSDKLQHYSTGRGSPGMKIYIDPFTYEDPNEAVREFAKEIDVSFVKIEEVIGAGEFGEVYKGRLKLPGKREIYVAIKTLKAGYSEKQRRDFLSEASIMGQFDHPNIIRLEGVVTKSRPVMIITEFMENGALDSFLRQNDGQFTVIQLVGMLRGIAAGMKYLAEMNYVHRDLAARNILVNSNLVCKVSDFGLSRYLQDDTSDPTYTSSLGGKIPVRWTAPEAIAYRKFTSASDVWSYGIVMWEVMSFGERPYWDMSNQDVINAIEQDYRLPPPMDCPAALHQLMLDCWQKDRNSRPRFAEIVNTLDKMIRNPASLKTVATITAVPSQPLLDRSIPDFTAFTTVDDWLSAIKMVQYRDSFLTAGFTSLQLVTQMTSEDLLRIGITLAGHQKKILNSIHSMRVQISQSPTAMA

MYLK (human) = MYLK (human) (UniProt Q15746)
MARK1 (human) = MARK1 (human) (UniProt Q9P0L2); conditions: compound 10.0 µM
DYRK2 (human) = DYRK2 (human) (UniProt Q92630)
PKN2 (human) = PKN2 (human) (UniProt Q16513)
PIM3 (human) = PIM3 (human) (UniProt Q86V86)
RPS6KA1 KD1 KD2 (human) = RPS6KA1 KD1 KD2 (human) (UniProt Q15418)
CLK2 (human) = CLK2 (human) (UniProt P49760)
HIPK2 (human) = HIPK2 (human) (UniProt Q9H2X6)
HIPK2 (human), sequence (Q9H2X6 whole entry, looked up): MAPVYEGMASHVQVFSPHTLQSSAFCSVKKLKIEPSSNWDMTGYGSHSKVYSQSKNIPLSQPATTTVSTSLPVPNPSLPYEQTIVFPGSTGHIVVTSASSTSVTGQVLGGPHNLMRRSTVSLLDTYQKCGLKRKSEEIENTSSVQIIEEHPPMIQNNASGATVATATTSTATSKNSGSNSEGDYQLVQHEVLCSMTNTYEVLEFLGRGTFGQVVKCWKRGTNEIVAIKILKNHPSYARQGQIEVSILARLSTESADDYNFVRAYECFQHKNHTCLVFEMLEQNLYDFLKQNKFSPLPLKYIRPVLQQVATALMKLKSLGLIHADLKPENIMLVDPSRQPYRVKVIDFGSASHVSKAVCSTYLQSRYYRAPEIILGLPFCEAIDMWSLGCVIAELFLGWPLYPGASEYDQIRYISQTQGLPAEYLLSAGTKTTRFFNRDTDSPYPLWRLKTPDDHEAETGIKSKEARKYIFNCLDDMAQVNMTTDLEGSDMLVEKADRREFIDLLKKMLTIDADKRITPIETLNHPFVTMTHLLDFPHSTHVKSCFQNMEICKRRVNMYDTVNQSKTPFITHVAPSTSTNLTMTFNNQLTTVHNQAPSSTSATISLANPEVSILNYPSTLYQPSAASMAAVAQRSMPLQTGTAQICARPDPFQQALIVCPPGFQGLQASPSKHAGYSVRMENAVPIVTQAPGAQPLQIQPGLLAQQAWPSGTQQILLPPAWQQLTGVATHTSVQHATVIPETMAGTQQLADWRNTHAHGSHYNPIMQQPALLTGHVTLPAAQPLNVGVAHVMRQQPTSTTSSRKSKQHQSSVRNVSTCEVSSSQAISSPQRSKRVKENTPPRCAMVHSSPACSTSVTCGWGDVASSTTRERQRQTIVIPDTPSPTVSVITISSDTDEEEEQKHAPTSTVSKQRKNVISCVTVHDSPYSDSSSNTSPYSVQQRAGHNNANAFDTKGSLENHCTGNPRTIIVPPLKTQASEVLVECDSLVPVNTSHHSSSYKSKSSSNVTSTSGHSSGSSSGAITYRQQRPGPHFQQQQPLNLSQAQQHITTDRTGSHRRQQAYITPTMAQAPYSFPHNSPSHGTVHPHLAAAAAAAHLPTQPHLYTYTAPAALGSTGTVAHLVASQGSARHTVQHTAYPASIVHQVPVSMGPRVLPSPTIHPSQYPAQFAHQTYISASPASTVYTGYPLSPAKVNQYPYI

EPHB2 (human) = EPHB2 (human) (UniProt P29323)
IRAK4 (human) = IRAK4 (human) (UniProt Q9NWZ3); conditions: compound 0.1 µM
MARK2 (human) = MARK2 (human) (UniProt Q7KZI7)
STK3 (human) = STK3 (human) (UniProt Q13188)
GCK (human) = GCK (human) (UniProt Q12851)
IKBKE (human) = IKBKE (human) (UniProt Q14164)
CHEK2 (human) = CHEK2 (human) (UniProt O96017)
[2] = test system: RPS6KB1 (human), P23443 [T412E]
FLT1 (human) = FLT1 (human) (UniProt P17948)
MAPK12 (human) = MAPK12 (human) (UniProt P53778)
PRKCA (human) = PRKCA (human) (UniProt P17252)

MAP3K7 TAB1 (human), sequence (O43318 whole entry, looked up): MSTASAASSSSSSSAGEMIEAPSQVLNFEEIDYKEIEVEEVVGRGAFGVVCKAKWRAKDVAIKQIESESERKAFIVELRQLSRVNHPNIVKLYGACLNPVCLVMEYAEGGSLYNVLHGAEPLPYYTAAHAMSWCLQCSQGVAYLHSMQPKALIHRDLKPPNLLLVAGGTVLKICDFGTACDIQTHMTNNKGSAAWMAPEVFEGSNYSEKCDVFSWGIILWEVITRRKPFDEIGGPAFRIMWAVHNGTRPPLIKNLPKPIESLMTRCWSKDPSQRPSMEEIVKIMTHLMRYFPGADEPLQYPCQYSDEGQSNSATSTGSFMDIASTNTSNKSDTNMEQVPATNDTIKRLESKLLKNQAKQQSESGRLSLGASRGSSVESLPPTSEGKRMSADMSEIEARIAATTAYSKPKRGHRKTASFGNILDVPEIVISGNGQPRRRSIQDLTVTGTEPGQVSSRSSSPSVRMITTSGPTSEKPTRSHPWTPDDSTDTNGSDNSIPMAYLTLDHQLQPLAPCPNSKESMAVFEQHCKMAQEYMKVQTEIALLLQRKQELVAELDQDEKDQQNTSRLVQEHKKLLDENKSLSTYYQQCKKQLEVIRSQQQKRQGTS
MAP3K7 TAB1 (human), sequence (Q15750 whole entry, looked up): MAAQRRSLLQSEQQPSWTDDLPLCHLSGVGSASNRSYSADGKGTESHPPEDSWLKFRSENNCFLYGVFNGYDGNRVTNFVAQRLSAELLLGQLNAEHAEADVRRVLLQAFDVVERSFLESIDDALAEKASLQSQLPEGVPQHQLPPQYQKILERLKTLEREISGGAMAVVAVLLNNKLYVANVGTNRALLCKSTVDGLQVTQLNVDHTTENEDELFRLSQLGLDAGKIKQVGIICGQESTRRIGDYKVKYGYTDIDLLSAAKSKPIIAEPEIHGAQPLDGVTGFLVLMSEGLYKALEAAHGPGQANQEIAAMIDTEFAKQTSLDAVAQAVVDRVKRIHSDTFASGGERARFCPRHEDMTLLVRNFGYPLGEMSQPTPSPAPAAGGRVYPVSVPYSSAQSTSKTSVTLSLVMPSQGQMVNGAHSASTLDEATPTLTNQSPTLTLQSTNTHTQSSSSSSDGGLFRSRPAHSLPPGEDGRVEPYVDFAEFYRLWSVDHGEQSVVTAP

Question: How did the residual activity (EPHB4 (human); compound 1.0 µM) turn out when `O=C(N[C@@H](COc1ccc2[nH]c(=O)[nH]c2c1)c1ccccc1)c1cccn(Cc2ccc(F)c(F)c2)c1=O` was run?
Answer: 85%

Question: And the residual activity (EPHB4 (human); compound 10.0 µM)?
Answer: 87%

Question: And the residual activity (MAP3K7 TAB1 (human); compound 0.1 µM)?
Answer: 97%

Question: What about the residual activity (MAP3K7 TAB1 (human); compound 1.0 µM) of the same compound?
Answer: 103%

Question: What about the residual activity (MAP3K7 TAB1 (human); compound 10.0 µM) of the same compound?
Answer: 54%

Question: What about the residual activity ([1]; compound 0.1 µM) of the same compound?
Answer: 106%

Question: What about the residual activity ([1]; compound 1.0 µM) of the same compound?
Answer: 102%

Question: What about the residual activity ([1]; compound 10.0 µM) of the same compound?
Answer: 102%

Question: What about the residual activity (DYRK3 (human); compound 0.1 µM) of the same compound?
Answer: 109%

Question: And the residual activity (DYRK3 (human); compound 1.0 µM)?
Answer: 109%

Question: What about the residual activity (DYRK3 (human); compound 10.0 µM) of the same compound?
Answer: 93%

Question: What about the residual activity (MAPKAPK5 (human); compound 0.1 µM) of the same compound?
Answer: 108%

Question: What about the residual activity (MAPKAPK5 (human); compound 1.0 µM) of the same compound?
Answer: 100%

Question: What about the residual activity (MAPKAPK5 (human); compound 10.0 µM) of the same compound?
Answer: 95%

Question: And the residual activity (ROCK2 (rat); compound 0.1 µM)?
Answer: 105%

Question: What about the residual activity (ROCK2 (rat); compound 1.0 µM) of the same compound?
Answer: 112%

Question: What about the residual activity (ROCK2 (rat); compound 10.0 µM) of the same compound?
Answer: 108%

Question: And the residual activity (PIM1 (human); compound 0.1 µM)?
Answer: 101%

Question: And the residual activity (PIM1 (human); compound 1.0 µM)?
Answer: 105%

Question: And the residual activity (PIM1 (human); compound 10.0 µM)?
Answer: 76%

Question: And the residual activity (TAOK1 (human); compound 0.1 µM)?
Answer: 111%

Question: What about the residual activity (TAOK1 (human); compound 1.0 µM) of the same compound?
Answer: 126%

Question: And the residual activity (TAOK1 (human); compound 10.0 µM)?
Answer: 119%

Question: And the residual activity (MELK (human); compound 0.1 µM)?
Answer: 97%

Question: And the residual activity (MELK (human); compound 1.0 µM)?
Answer: 110%

Question: And the residual activity (MELK (human); compound 10.0 µM)?
Answer: 99%

Question: And the residual activity (MAPKAPK2 (human); compound 0.1 µM)?
Answer: 99%

Question: And the residual activity (MAPKAPK2 (human); compound 1.0 µM)?
Answer: 101%

Question: And the residual activity (MAPKAPK2 (human); compound 10.0 µM)?
Answer: 90%

Question: What about the residual activity (NEK2 (human); compound 0.1 µM) of the same compound?
Answer: 107%

Question: What about the residual activity (NEK2 (human); compound 1.0 µM) of the same compound?
Answer: 97%

Question: What about the residual activity (NEK2 (human); compound 10.0 µM) of the same compound?
Answer: 96%

Question: What about the residual activity (DAPK1 (human); compound 0.1 µM) of the same compound?
Answer: 106%

Question: What about the residual activity (DAPK1 (human); compound 1.0 µM) of the same compound?
Answer: 113%

Question: And the residual activity (DAPK1 (human); compound 10.0 µM)?
Answer: 91%

Question: What about the residual activity (MAPK14 (human); compound 0.1 µM) of the same compound?
Answer: 114%

Question: What about the residual activity (MAPK14 (human); compound 1.0 µM) of the same compound?
Answer: 121%

Question: What about the residual activity (MAPK14 (human); compound 10.0 µM) of the same compound?
Answer: 114%

Question: What about the residual activity (EPHA2 (human); compound 1.0 µM) of the same compound?
Answer: 102%

Question: What about the residual activity (EPHA2 (human); compound 10.0 µM) of the same compound?
Answer: 86%

Question: What about the residual activity (TTK (human); compound 0.1 µM) of the same compound?
Answer: 99%

Question: What about the residual activity (TTK (human); compound 1.0 µM) of the same compound?
Answer: 100%

Question: And the residual activity (TTK (human); compound 10.0 µM)?
Answer: 95%

Question: And the residual activity (EPHB1 (human); compound 0.1 µM)?
Answer: 87%

Question: And the residual activity (EPHB1 (human); compound 1.0 µM)?
Answer: 88%

Question: What about the residual activity (EPHB1 (human); compound 10.0 µM) of the same compound?
Answer: 90%

Question: What about the residual activity (MYLK (human); compound 0.1 µM) of the same compound?
Answer: 97%

Question: And the residual activity (MYLK (human); compound 1.0 µM)?
Answer: 97%

Question: And the residual activity (MYLK (human); compound 10.0 µM)?
Answer: 89%

Question: And the residual activity (MARK1 (human))?
Answer: 107%

Question: And the residual activity (DYRK2 (human); compound 0.1 µM)?
Answer: 110%

Question: And the residual activity (DYRK2 (human); compound 1.0 µM)?
Answer: 101%

Question: And the residual activity (DYRK2 (human); compound 10.0 µM)?
Answer: 83%

Question: And the residual activity (PKN2 (human); compound 0.1 µM)?
Answer: 108%

Question: What about the residual activity (PKN2 (human); compound 1.0 µM) of the same compound?
Answer: 113%

Question: What about the residual activity (PKN2 (human); compound 10.0 µM) of the same compound?
Answer: 103%

Question: And the residual activity (PIM3 (human); compound 0.1 µM)?
Answer: 103%

Question: What about the residual activity (PIM3 (human); compound 1.0 µM) of the same compound?
Answer: 108%

Question: What about the residual activity (PIM3 (human); compound 10.0 µM) of the same compound?
Answer: 95%

Question: And the residual activity (RPS6KA1 KD1 KD2 (human); compound 0.1 µM)?
Answer: 95%

Question: What about the residual activity (RPS6KA1 KD1 KD2 (human); compound 1.0 µM) of the same compound?
Answer: 93%

Question: What about the residual activity (RPS6KA1 KD1 KD2 (human); compound 10.0 µM) of the same compound?
Answer: 114%

Question: And the residual activity (CLK2 (human); compound 0.1 µM)?
Answer: 106%

Question: And the residual activity (CLK2 (human); compound 1.0 µM)?
Answer: 95%

Question: And the residual activity (CLK2 (human); compound 10.0 µM)?
Answer: 74%

Question: And the residual activity (HIPK2 (human); compound 0.1 µM)?
Answer: 92%

Question: And the residual activity (HIPK2 (human); compound 1.0 µM)?
Answer: 96%

Question: What about the residual activity (HIPK2 (human); compound 10.0 µM) of the same compound?
Answer: 90%

Question: What about the residual activity (EPHB2 (human); compound 0.1 µM) of the same compound?
Answer: 118%

Question: And the residual activity (EPHB2 (human); compound 10.0 µM)?
Answer: 121%

Question: And the residual activity (IRAK4 (human))?
Answer: 110%

Question: And the residual activity (MARK2 (human); compound 0.1 µM)?
Answer: 105%

Question: What about the residual activity (MARK2 (human); compound 1.0 µM) of the same compound?
Answer: 102%

Question: What about the residual activity (MARK2 (human); compound 10.0 µM) of the same compound?
Answer: 88%

Question: And the residual activity (STK3 (human); compound 0.1 µM)?
Answer: 102%

Question: What about the residual activity (STK3 (human); compound 1.0 µM) of the same compound?
Answer: 105%

Question: And the residual activity (STK3 (human); compound 10.0 µM)?
Answer: 100%

Question: And the residual activity (GCK (human); compound 0.1 µM)?
Answer: 102%

Question: And the residual activity (GCK (human); compound 1.0 µM)?
Answer: 101%

Question: What about the residual activity (GCK (human); compound 10.0 µM) of the same compound?
Answer: 94%

Question: And the residual activity (IKBKE (human); compound 0.1 µM)?
Answer: 103%

Question: What about the residual activity (IKBKE (human); compound 1.0 µM) of the same compound?
Answer: 109%

Question: And the residual activity (IKBKE (human); compound 10.0 µM)?
Answer: 95%

Question: What about the residual activity (CHEK2 (human); compound 0.1 µM) of the same compound?
Answer: 102%

Question: What about the residual activity (CHEK2 (human); compound 1.0 µM) of the same compound?
Answer: 106%

Question: What about the residual activity (CHEK2 (human); compound 10.0 µM) of the same compound?
Answer: 100%

Question: And the residual activity ([2]; compound 0.1 µM)?
Answer: 103%

Question: What about the residual activity ([2]; compound 1.0 µM) of the same compound?
Answer: 97%

Question: What about the residual activity ([2]; compound 10.0 µM) of the same compound?
Answer: 98%

Question: And the residual activity (FLT1 (human); compound 0.1 µM)?
Answer: 106%

Question: And the residual activity (FLT1 (human); compound 1.0 µM)?
Answer: 100%

Question: And the residual activity (MAPK12 (human); compound 0.1 µM)?
Answer: 98%

Question: And the residual activity (MAPK12 (human); compound 1.0 µM)?
Answer: 110%

Question: And the residual activity (MAPK12 (human); compound 10.0 µM)?
Answer: 105%

Question: What about the residual activity (PRKCA (human); compound 0.1 µM) of the same compound?
Answer: 99%

Question: What about the residual activity (PRKCA (human); compound 1.0 µM) of the same compound?
Answer: 91%

Question: What about the residual activity (PRKCA (human); compound 10.0 µM) of the same compound?
Answer: 96%
